Measurements from patent publication US11661398B2, “Cellular transport system for transferring a sulfonic acid construct carrying a cargo into the cytoplasm of a cell” (Scientist of Fortune, S.A., priority 2017, dated 2023).
“Also recorded” adds a separate entry of the source.

Tests used:
BW25113 ΔleuB = experiment: Intracellular release of leucine from sulfobutanoyl-L-leucine, growth on plates; assay type: cell-based, E. coli; conditions: 2 mM compound, 0.5 mM taurine
Procedure: (§1) For the experiments relating to the sulfonate based synthetic transport system, unless stated otherwise, growth experiments in selective medium were carried out in sulfur free MS minimal medium (4 mM citric acid, 1 mM MgCl2, 20 mM NH4Cl, 50 mM KH2PO4 and 1×NTA mix (10 μM nitrilotriacetic acid, 3 μM CaCl2, 3 μM FeCl3, 1 μM MnCl2, 0.3 μM ZnCl2, 0.3 μM H3B3, 0.3 μM CrC3, 0.3 μM COCl2, 0.3 μM CuCl2, 0.3 μM Ni2C, 0.3 μM Na2MoO4, 0.3 μM Na2SeO3)) supplemented with 0.5% glucose. MgSO4 (1 mM), MgCl2 (1 mM), L-leucine (0.4 mM), IPTG (0.5 mM), aTc (100 ng mL-1), nicotinic acid (various concentrations), 3-picolylamine (various concentrations) and sulfonates (various concentrations) as indicated in the text. […] Synthesis schemes for sulfobutanoyl-p-nitroanilide and other sulfonates are given below.
It was then tested if sulfobutanoyl-L-leucine can also be hydrolyzed intracellularly by GGT*. Strains BW25113 ΔleuB or BW25113 ΔleuB ΔssuD were transformed either with the empty vector pACT3 or the expression plasmids pACT3/EcGGT_ΔN24_D433N and pACT3/PnGGT_ΔN24_D405N. […] Taurine is taken up exclusively via TauABC and solely desulfonated by TauD. Addition of an excess of taurine should therefore not lead to competition with sulfobutanoyl-L-leucine for the SsuABC transporter and prevent TauD from using sulfobutanoyl-L-leucine as substrate, ensuring that the majority of sulfobutanoyl-L-leucine is hydroluzed by GGT*.

PnGGT* P505T = experiment: Sulfobutanoyl-L-leucine hydrolysis kinetics coupled to branched-chain amino acid kit; assay type: biochemical, Pseudomonas nitroreducens; conditions: 50 mM Tris/HCl (pH 7.0)
Procedure: (§2) FIG. 32. […] Due to the unknown composition of the kit, absolute quantification of leucine was not possible and the results relating to reaction rates are plotted as changes in absorbance over time. […] (b) Kinetics of PnGGT* P505T were determined with the same substrate concentrations and buffer as for PnGGT*. […] Fitting of the kinetic data was performed with SigmaPlot v.12.2. Dots represent the average of three independent measurements with standard deviations shown as error bars.
(§3) For that, 50 μL of the BCAA reaction mix containing 46 μL BCAA assay buffer, 2 μL BCAA enzyme mix and 2 μL WST substrate mix were pre-incubated with 35 μL BCAA assay buffer and 5 μL purified PnGGT* (final concentration approximately 0.05 mg mL-1) at 37° C. […] The reaction rate of PnGGT* variants was determined as the specific difference in absorption over time (ΔA (450 nm) per minute per mg of purified protein).

PnGGT* D385Y = experiment: as above; assay type: biochemical, Pseudomonas nitroreducens; conditions: 50 mM Tris/HCl (pH 7.0), 10-1000 μM substrate
Procedure: as §2, §3

TK082[pSsuABC] = experiment: Growth of leucine auxotrophic strain in liquid medium; assay type: cell-based, E. coli; conditions: liquid MS minimal medium, 0.25 mM compound, pACT3 versus pPnGGT*
BW25113 ΔleuB (TK080) = experiment: Growth on different sulfur sources; assay type: cell-based, E. coli; conditions: 1 mM sulfur source, minimal medium, 0.5% glucose, 0.4 mM leucine
Procedure: FIG. 21: Growth of E. coli on sulfonates. Strains TK080 (a; BW25113 ΔleuB) and TK082 (b; BW25113 ΔleuB ΔssuEADCB ΔtauD) were grown in MS minimal medium supplemented with 0.5% glucose, 0.4 mM L-leucine, 1 mM MgCl2 and 1 mM of a sulfur source. TK080 was able to use the majority of the tested sulfur sources with a similar efficiency as sulfate. […] Dots represent the average of three independent measurements with standard deviations shown as error bars.
as §1
The sulfonate transporters SsuABC and TauABC transport a wide variety of sulfonate compounds (Eichhorn et al., 2000) and can thus be exploited for the present synthetic transport system. As such, the uptake and utilization of sulfobutanoyl-L-leucine was assessed. The leucine auxotrophic strain BW25113 ΔleuB was tested for growth in minimal medium supplemented with 0.5% glucose, 0.4 mM leucine, 0.4 mM isoleucine and 1 mM of a sulfur-containing compound as the sole sulfur source.

PnGGT* = target: T1, PnGGT* (Pseudomonas nitroreducens, UniProt E0D5C2, D405N); experiment: Sulfobutanoyl-L-leucine hydrolysis kinetics coupled to branched-chain amino acid kit; assay type: biochemical; conditions: 50 mM Tris/HCl (pH 7.0)
T1 sequence (E0D5C2 25-556 D405N limits assumed): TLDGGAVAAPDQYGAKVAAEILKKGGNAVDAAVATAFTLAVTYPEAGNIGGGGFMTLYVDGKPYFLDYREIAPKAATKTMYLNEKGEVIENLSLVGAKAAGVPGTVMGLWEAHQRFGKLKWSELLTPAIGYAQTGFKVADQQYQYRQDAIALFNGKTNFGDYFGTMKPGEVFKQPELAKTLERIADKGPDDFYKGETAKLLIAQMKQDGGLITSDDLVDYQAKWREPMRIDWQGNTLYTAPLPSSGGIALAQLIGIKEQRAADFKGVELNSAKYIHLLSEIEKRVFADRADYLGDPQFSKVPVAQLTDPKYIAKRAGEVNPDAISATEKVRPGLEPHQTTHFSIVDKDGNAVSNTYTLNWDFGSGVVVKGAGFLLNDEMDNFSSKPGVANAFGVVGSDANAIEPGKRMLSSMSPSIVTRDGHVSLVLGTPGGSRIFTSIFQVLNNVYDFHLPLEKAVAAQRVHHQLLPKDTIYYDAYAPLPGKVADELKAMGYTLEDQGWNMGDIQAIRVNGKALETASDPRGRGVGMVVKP
Procedure: as §2, §3

## CC(C)C[C@H](NC(=O)CCCS(=O)(=O)O)C(=O)O [sulfobutanoyl-L-leucine]
BW25113 ΔleuB; expressing EcGGT ΔN24 D433N
  growth with compound as leucine source: slower growth
BW25113 ΔleuB; expressing PnGGT ΔN24 D405N
  growth with compound as leucine source: grows best
BW25113 ΔleuB; pACT3 empty vector control
  growth with compound as leucine source: weak growth
PnGGT* P505T
  increase in Vmax in comparison to PnGGT*: 27%
  reduction in KM in comparison to PnGGT*: 46%
PnGGT* D385Y
  improvement of Vmax over PnGGT*: 1.55 fold
TK082[pSsuABC]
  growth with compound as sole leucine source: only grew when cells were synthesizing PnGGT*
BW25113 ΔleuB (TK080)
  growth with compound as sole sulfur source: comparable to growth on other sulfonates; also recorded: comparable efficiencies
PnGGT*
  K value relative to K value with sulfobutanoyl-p-nitroanilide: approximately three times higher
